What follows are molecules tested against T1, AhR (Homo sapiens, UniProt P35869) (assay: AhR inhibitory activity experiment, in vitro assay 1: HepG2-Lucia AhR cells, Lucia luciferase reporter (QUANTI-Luc)). Conditions: 24 hours incubation at 37° C., Lucia luciferase in supernatant, read-out: AhR inhibitory activity C50.
T1 sequence (P35869 11-848): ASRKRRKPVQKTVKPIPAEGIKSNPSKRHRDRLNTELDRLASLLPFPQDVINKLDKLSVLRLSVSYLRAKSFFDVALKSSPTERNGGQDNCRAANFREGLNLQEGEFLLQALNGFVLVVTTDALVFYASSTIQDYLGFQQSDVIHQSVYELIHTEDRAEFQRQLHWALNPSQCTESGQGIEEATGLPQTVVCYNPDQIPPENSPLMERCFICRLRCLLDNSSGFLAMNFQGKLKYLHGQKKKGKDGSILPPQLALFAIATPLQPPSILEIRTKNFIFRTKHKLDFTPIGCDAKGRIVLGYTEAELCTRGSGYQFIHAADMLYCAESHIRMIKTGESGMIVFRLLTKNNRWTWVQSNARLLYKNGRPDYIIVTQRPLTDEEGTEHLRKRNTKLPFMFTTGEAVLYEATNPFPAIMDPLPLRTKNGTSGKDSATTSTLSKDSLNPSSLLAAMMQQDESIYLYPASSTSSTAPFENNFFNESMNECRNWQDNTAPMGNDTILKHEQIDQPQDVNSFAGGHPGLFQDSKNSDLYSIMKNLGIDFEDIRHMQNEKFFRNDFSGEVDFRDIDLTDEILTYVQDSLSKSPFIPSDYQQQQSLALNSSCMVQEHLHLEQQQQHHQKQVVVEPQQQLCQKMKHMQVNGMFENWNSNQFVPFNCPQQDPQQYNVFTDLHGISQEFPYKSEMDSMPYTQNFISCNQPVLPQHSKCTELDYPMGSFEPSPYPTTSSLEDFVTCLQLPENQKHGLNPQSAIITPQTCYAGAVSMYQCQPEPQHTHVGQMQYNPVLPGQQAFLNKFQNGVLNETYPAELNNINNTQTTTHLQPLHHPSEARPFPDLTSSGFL
Assay type: cell-based
Method: Test Example: AhR Inhibitory Activity Experiment
When QUANTI-Luc™ (InvivoGen Company) testing reagents are used, AhR gene signaling pathways can be studied by monitoring the activity of Lucia luciferase in the cell culture supernatant.
In Vitro Assay 1: Assay on Inhibitory Activity in Human Cell Lines
Adherent cell layers of HepG2-Lucia™ AhR cells in a logarithmic growth phase were washed with PBS, and then the cells were isolated with trypsin. The isolated cells were centrifuged at 1000 RPM for 5 minutes, the supernatant was removed, and the cells were re-suspended with a test medium by 1.25×10^5 cells/ml.
20,000 cells were added to each well of a 96-well plate, and the 96-well plate was placed in a CO2 incubator to incubate the cells at 37° C. for 24 hours in the absence (negative control) or presence of test compounds with gradient increasing concentrations (typical dilutions: 169 pmol/L, 0.5 nmol/L, 1.5 nmol/L; 4.6 nmol/L, 13.7 nmol/L, 41 nmol/L, 123 nmol/L, 370 nmol/L, 1.1 μmol/L, 3.3 μmol/L and 10 μmol/L, in triplicate).
The 20 μl/well cell supernatant was transferred to a black 96-well plate, a 50 μL/well QUANTI-Luc™ solution was added, and the activity of Lucia luciferase was measured on a multifunctional ELISA reader Spark 10 M (Tecan Company) through a QUANTI-Luc™ luciferase assay system.
Experimental results are shown in Table 1, wherein for IC50 values, “++++” represents IC50<0.05 μM; “+++” represents IC50 between 0.05 μM and 0.2 μM; “++” represents IC50 between 0.2 μM and 1.0 μM; and “+” represents IC50>1.0 μM.

SMILES	IC50 [nM]
Cn1cc(-c2nc(C(=O)N[C@H]3CCc4ncccc43)cc(-c3ccc(Cl)cc3)n2)cn1 [Compound 2, (S)-6-(4-chlorophenyl)-N-((S)-6,7-dihydro-5H-cyclopentano[B]pyridin-5-yl)-2-(1-methyl-1H-pyrazol-4-yl)pyrimidine-4-formamide]	< 50
Cn1cc(-c2nc(C(=O)N[C@H]3c4ccccc4C[C@H]3O)cc(-c3ccc(Cl)cc3)n2)cn1 [Compound 3, (S)-6-(4-chlorophenyl)-N-((1S, 2R)-(−)-1-yl-2-indanol)-2-(1-methyl-1H-pyrazol-4-yl)pyrimidine-4-formamide]	50 to 200
COc1ccc([C@H](C)NC(=O)c2cc(-c3ccc(Cl)cc3)nc(-c3cnn(C)c3)n2)cc1F [Compound 8, (S)-6-(4-chlorophenyl)-N-(1-(3-fluoro-4-methoxyphenyl)ethyl)-2-(1-methyl-1H-pyrazol-4-yl)pyrimidine-4-formamide]	< 50
C[C@H](NC(=O)c1cc(-c2ccc(Cl)cc2)nc(-c2cnn(C)c2)n1)c1ccnc(Cl)c1 [Compound 9, (S)-6-(4-chlorophenyl)-N-(1-(2-chloro-4-pyridine)ethyl)-2-(1-methyl-1H-pyrazol-4-yl)pyrimidine-4-formamide]	< 50
C[C@H](NC(=O)c1cc(-c2ccc(Cl)cc2)nc(-c2cnn(C)c2)n1)c1ccnc(C#N)c1 [Compound 12, (S)-6-(4-chlorophenyl)-N-(1-(2-cyano-4-pyridine)ethyl)-2-(1-methyl-1H-pyrazol-4-yl)pyrimidine-4-formamide]	< 50
C[C@H](NC(=O)c1cc(-c2ccc(Cl)cc2)nc(-c2cnn(C)c2)n1)c1cnn(C)c1 [Compound 14, (S)-6-(4-chlorophenyl)-N-(1-(1-methyl-1H-pyrazol-4-yl)ethyl)-2-(1-methyl-1H-pyrazol-4-yl)pyrimidine-4-formamide]	< 50
C[C@H](NC(=O)c1cc(-c2ccc(Cl)cc2)nc(-c2cnn(C)c2)n1)c1ccnc(F)c1 [Compound 15, (S)-6-(4-chlorophenyl)-N-(1-(2-fluoro-4-pyridine)ethyl)-2-(1-methyl-1H-pyrazol-4-yl)pyrimidine-4-formamide]	< 50
C[C@H](NC(=O)c1cc(-c2ccc(Cl)cc2)nc(-c2cnn(C)c2)n1)c1ccc2c(c1)OCO2 [Compound 16, (S)-6-(4-chlorophenyl)-N-(1-[5(2H-1,3-benzodioxomethylene)]ethyl)-2-(1-methyl-1H-pyrazol-4-yl)pyrimidine-4-formamide]	50 to 200
Cn1cc(-c2nc(C(=O)N[C@H](c3ccc(F)cc3)C3CC3)cc(-c3ccc(Cl)cc3)n2)cn1 [Compound 19, (S)-6-(4-chlorophenyl)-N-(1-cyclopropyl(4-fluorophenyl))-2-(1-methyl-1H-pyrazol-4-yl)pyrimidine-4-formamide]	< 50
Cn1cc(-c2nc(C(=O)N[C@H]3CCc4cc(F)c(F)cc43)cc(-c3ccc(Cl)cc3)n2)cn1 [Compound 20, (S)-6-(4-chlorophenyl)-N-((S)-(5,6-difluoro-2,3-dihydro)-(−)-1-yl-2-indene)-2-(1-methyl-1H-pyrazol-4-yl)pyrimidine-4-formamide]	50 to 200
Cn1cc(-c2nc(C(=O)N[C@H]3CCc4ccc(F)cc43)cc(-c3ccc(Cl)cc3)n2)cn1 [Compound 21, (S)-6-(4-chlorophenyl)-N-((S)-(6-fluoro-2,3-dihydro)-(−)-1-yl-2-indene)-2-(1-methyl-1H-pyrazol-4-yl)pyrimidine-4-formamide]	50 to 200
Cn1cc(-c2nc(C(=O)N[C@H]3CC(C)(C)c4ccccc43)cc(-c3ccc(Cl)cc3)n2)cn1 [Compound 25, (S)-6-(4-chlorophenyl)-N-((S)-(3,3-dimethyl-2,3-dihydro)-(−)-1-yl-2-indene)-2-(1-methyl-1H-pyrazol-4-yl)pyrimidine-4-formamide]	> 1000

Other lines, results leading:

IC50 [nM]	SMILES
< 50	C[C@H](NC(=O)c1cc(-c2ccc(Cl)cc2)nc(-c2cnn(C)c2)n1)c1ccc(F)c(F)c1 [Compound 1, (S)-6-(4-chlorophenyl)-N-(1-(3,4-difluorophenyl)ethyl)-2-(1-methyl-1H-pyrazol-4-yl)pyrimidine-4-formamide]
< 50	C[C@H](NC(=O)c1cc(-c2ccc(Cl)cc2)nc(-c2cnn(C)c2)n1)c1ccncc1 [Compound 4, (S)-6-(4-chlorophenyl)-N-(1-(4-pyridine)ethyl)-2-(1-methyl-1H-pyrazol-4-yl)pyrimidine-4-formamide]
< 50	C[C@H](NC(=O)c1cc(-c2ccc(Cl)cc2)nc(-c2cnn(C)c2)n1)c1ccnc(C(F)(F)F)c1 [Compound 5, (S)-6-(4-chlorophenyl)-N-(1-(2-trifluoromethyl-4-pyridine)ethyl)-2-(1-methyl-1H-pyrazol-4-yl)pyrimidine-4-formamide]
> 1000	Cn1cc(-c2nc(C(=O)NCCc3c[nH]c4ccccc34)cc(-c3ccc(Cl)cc3)n2)cn1 [Compound 6, (S)-6-(4-chlorophenyl)-N-(2-(1H-indol-3-yl)ethyl)-2-(1-methyl-1H-pyrazol-4-yl)pyrimidine-4-formamide]
< 50	Cn1cc(-c2nc(C(=O)NC3(c4ccc(F)c(F)c4)CC3)cc(-c3ccc(Cl)cc3)n2)cn1 [Compound 7, (S)-6-(4-chlorophenyl)-N-(1-(3,4-difluorophenyl)cyclopropyl)-2-(1-methyl-1H-pyrazol-4-yl)pyrimidine-4-formamide]
> 1000	C[C@H](NC(=O)c1cc(-c2ccc(Cl)cc2)nc(-c2cnn(C)c2)n1)c1ccc(O)c(F)c1 [Compound 11, (S)-6-(4-chlorophenyl)-N-(1-(3-fluoro-4-hydroxyphenyl)ethyl)-2-(1-methyl-1H-pyrazol-4-yl)pyrimidine-4-formamide]
< 50	C[C@H](NC(=O)c1cc(-c2ccc(Cl)cc2)nc(-c2cnn(C)c2)n1)c1ccc(Cl)c(F)c1 [Compound 13, (S)-6-(4-chlorophenyl)-N-(1-(3-fluoro-4-chlorophenyl)ethyl)-2-(1-methyl-1H-pyrazol-4-yl)pyrimidine-4-formamide]
< 50	C[C@H](NC(=O)c1cc(-c2ccc(Cl)cc2)nc(-c2cnn(C)c2)n1)c1ccn2ncnc2c1 [Compound 17]
< 50	CC[C@H](NC(=O)c1cc(-c2ccc(Cl)cc2)nc(-c2cnn(C)c2)n1)c1ccc(F)cc1 [Compound 18, (S)-6-(4-chlorophenyl)-N-(1-(4-fluorophenyl)n-propyl)-2-(1-methyl-1H-pyrazol-4-yl)pyrimidine-4-formamide]
> 1000	Cn1cc(-c2nc(C(=O)NCC3(c4ccc(Cl)cc4)CC3)cc(-c3ccc(Cl)cc3)n2)cn1 [Compound 22, (S)-6-(4-chlorophenyl)-N-(1-[1-(4-chlorophenyl)cyclopropyl]methyl)-2-(1-methyl-1H-pyrazol-4-yl)pyrimidine-4-formamide]
< 50	Cn1cc(-c2nc(C(=O)N[C@H]3CCCc4ncccc43)cc(-c3ccc(Cl)cc3)n2)cn1 [Compound 23, (S)-6-(4-chlorophenyl)-N-((S)-5,6,7,8-tetrahydro-6H-quinol-5-yl)-2-(1-methyl-1H-pyrazol-4-yl)pyrimidine-4-formamide]
200 to 1000	C[C@H](NC(=O)c1cc(-c2ccc(Cl)cc2)nc(-c2cnn(C)c2)n1)c1ccccc1C(F)(F)F [Compound 24, (S)-6-(4-chlorophenyl)-N-(1-(o-trifluoromethylphenyl)ethyl)-2-(1-methyl-1H-pyrazol-4-yl)pyrimidine-4-formamide]
< 50	C[C@H](NC(=O)c1cc(-c2ccc(Cl)cc2)nc(-c2cnn(C)c2)n1)c1cccc(F)c1 [Compound 26, (S)-6-(4-chlorophenyl)-N-(1-(3-fluorophenyl)ethyl)-2-(1-methyl-1H-pyrazol-4-yl)pyrimidine-4-formamide]

— patent publication US12668586B2, “AhR inhibitor, use thereof, and preparation method therefor” (CHONGQING PHARSCIN INNOBIO CO., LTD., priority 2021, dated 2026)
